Data taken from patent publication US20210214758A1, “METHODS AND TOOLS FOR DETERMINING CLONAL RELATEDNESS AND PREDICTING CLONAL TRAITS” (priority 2018, published 2021).

System: Klebsiella isolates
Experiment: Antibiotic susceptibility of Klebsiella clinical isolates per 7-SNP clonotype (Lookup Table 1; disk diffusion)
Format: cell-based, Klebsiella spp.
Experimental: In further embodiments, the Lookup Table is Lookup Table 1. The information contained in Lookup Table 1 below was obtained from urine specimens from patients with Klebsiella infections from several clinics within different regions of the United States. CT=clonotypes determined using a 7-SNP combination: phoE54; rpoB130; infB279; mdh315; phoE336; phoE354; and mdh429.
Next, antibiotic resistance was determined for all 387 Klebsiella isolates in the discovery set. Antibiotic testing was carried out according to the standard disk diffusion method as described in the Clinical and Laboratory Standards Institute (M100 Performance Standards for Antimicrobial Susceptibility Testing, 27th Edition, 2017). […] Since almost all Klebsiella isolates are known to be resistant to AMP and sensitive to IMI, TET is not used for treatment of urinary tract infections, and ESBL production is partially reflected in resistance to CTR, these antibiotics were not included for further analysis.
To aid in clinical decision-making and to translate clonotype information to treatment selection, Lookup Table 1 was generated. […] The information contained in Lookup Table 1 was obtained from urine specimens from patients with Klebsiella infections from several clinics within different regions of the United States. Indications of allowance or non-recommendation were determined based on a 20% resistance threshold to the indicated antibiotic; i.e., the antibiotic is recommended when more than 80% of the tested isolates within the indicated clonotype were susceptible to the indicated antibiotic, and was cautioned against when less than 80% of the isolates were susceptible to the antibiotic.

amoxicillin/clavulanate [AMC]
susceptibility, % (CT 000): 92%
susceptibility, % (CT 001): 100%
susceptibility, % (CT 010): 100%
susceptibility, % (CT 011): 91%
susceptibility, % (CT 031): 67%
susceptibility, % (CT 040): 75%
susceptibility, % (CT 050): 90%
susceptibility, % (CT 051): 90%
susceptibility, % (CT 071): 80%
susceptibility, % (CT 100): 86%
susceptibility, % (CT 110): 100%
susceptibility, % (CT 111): 90%
susceptibility, % (CT 130): 98%
susceptibility, % (CT 131): 69%
susceptibility, % (CT 141): 100%
susceptibility, % (CT 150): 87%
susceptibility, % (CT 151): 78%
susceptibility, % (CT 160): 100%
susceptibility, % (CT 170): 96%
susceptibility, % (CT 171): 92%
susceptibility, % (CT 200): 69%
susceptibility, % (CT 201): 89%
susceptibility, % (CT 210): 71%
susceptibility, % (CT 211): 90%
susceptibility, % (CT 230): 100%
susceptibility, % (CT 231): 100%
susceptibility, % (CT 240): 0%
susceptibility, % (CT 241): 100%
susceptibility, % (CT 250): 100%
susceptibility, % (CT 251): 93%
susceptibility, % (CT 271): 96%
susceptibility, % (CT 300): 100%
susceptibility, % (CT 301): 96%
susceptibility, % (CT 310): 80%
susceptibility, % (CT 311): 80%
susceptibility, % (CT 330): 95%
susceptibility, % (CT 331): 86%
susceptibility, % (CT 350): 83%
susceptibility, % (CT 351): 92%
susceptibility, % (CT 370): 100%
susceptibility, % (CT 371): 75%
susceptibility, % (CT 411): 100%
susceptibility, % (CT 450): 100%
susceptibility, % (CT 451): 100%
susceptibility, % (CT 510): 100%
susceptibility, % (CT 511): 100%
susceptibility, % (CT 530): 93%
susceptibility, % (CT 531): 83%
susceptibility, % (CT 550): 86%
susceptibility, % (CT 551): 50%
susceptibility, % (CT 570): 75%
susceptibility, % (CT 571): 100%
susceptibility, % (CT 611): 100%
susceptibility, % (CT 630): 100%
susceptibility, % (CT 650): 91%
susceptibility, % (CT 651): 92%
susceptibility, % (CT 670): 100%
susceptibility, % (CT 710): 100%
susceptibility, % (CT 730): 60%
susceptibility, % (CT 731): 98%
susceptibility, % (CT 750): 95%
susceptibility, % (CT 751): 100%
susceptibility, % (CT 771): 100%
susceptibility, % (CT Any Klebsiella spp.): 87%

trimethoprim/sulfamethoxazole [TS]
susceptibility, % (CT 000): 87%
susceptibility, % (CT 001): 100%
susceptibility, % (CT 010): 100%
susceptibility, % (CT 011): 91%
susceptibility, % (CT 031): 67%
susceptibility, % (CT 040): 25%
susceptibility, % (CT 050): 86%
susceptibility, % (CT 051): 85%
susceptibility, % (CT 071): 60%
susceptibility, % (CT 100): 100%
susceptibility, % (CT 110): 100%
susceptibility, % (CT 111): 90%
susceptibility, % (CT 130): 92%
susceptibility, % (CT 131): 72%
susceptibility, % (CT 141): 100%
susceptibility, % (CT 150): 73%
susceptibility, % (CT 151): 65%
susceptibility, % (CT 160): 0%
susceptibility, % (CT 170): 83%
susceptibility, % (CT 171): 92%
susceptibility, % (CT 200): 77%
susceptibility, % (CT 201): 79%
susceptibility, % (CT 210): 95%
susceptibility, % (CT 211): 91%
susceptibility, % (CT 230): 100%
susceptibility, % (CT 231): 100%
susceptibility, % (CT 240): 100%
susceptibility, % (CT 241): 100%
susceptibility, % (CT 250): 80%
susceptibility, % (CT 251): 80%
susceptibility, % (CT 271): 75%
susceptibility, % (CT 300): 0%
susceptibility, % (CT 301): 76%
susceptibility, % (CT 310): 100%
susceptibility, % (CT 311): 65%
susceptibility, % (CT 330): 55%
susceptibility, % (CT 331): 76%
susceptibility, % (CT 350): 74%
susceptibility, % (CT 351): 84%
susceptibility, % (CT 370): 75%
susceptibility, % (CT 371): 100%
susceptibility, % (CT 411): 100%
susceptibility, % (CT 450): 83%
susceptibility, % (CT 451): 100%
susceptibility, % (CT 510): 100%
susceptibility, % (CT 511): 0%
susceptibility, % (CT 530): 45%
susceptibility, % (CT 531): 67%
susceptibility, % (CT 550): 79%
susceptibility, % (CT 551): 52%
susceptibility, % (CT 570): 75%
susceptibility, % (CT 571): 100%
susceptibility, % (CT 611): 100%
susceptibility, % (CT 630): 100%
susceptibility, % (CT 650): 83%
susceptibility, % (CT 651): 85%
susceptibility, % (CT 670): 100%
susceptibility, % (CT 710): 67%
susceptibility, % (CT 730): 45%
susceptibility, % (CT 731): 82%
susceptibility, % (CT 750): 65%
susceptibility, % (CT 751): 100%
susceptibility, % (CT 771): 86%
susceptibility, % (CT Any Klebsiella spp.): 80%
